Reference: US9072757B2, “Combination of an HMG-CoA reductase inhibitor and a farnesyl-pyrophosphate synthase inhibitor for the treatment of diseases related to the persistence and/or accumulation of prenylated proteins” (UNIVERSITE DE LA MEDITERRANEE AIX-MARSEILLE II, priority 2006, dated 2015)

What was measured:
[1] = tested on: prelamin A; assay: Immunohistochemistry (immunomarking): level of prelamin A in healthy reference cells; assay type: cell-based, human; settings: Pravastatin 100 μM for 12 hours, zoledronate 20 μM for 6 hours; in combination or alone (FIG. 3)
Procedure: (§1) The cell lines are either reference fibroblasts AG16409 from the Coriell Institute, or fibroblasts from biopsies of patients suffering from Restrictive Dermopathy. They are cultivated at 37° C. in 5% CO2 in a P2 room.
(§2) A cell culture is trypsinised and the cells counted on a Neubauer cell.
(§3) Labtech-style culture wells (Nunc, ref 177399) are seeded, at the rate of 5×10^4 cells per well.
(§4) The complete culture medium is supplemented by the treatment or treatments (statin, NBP, or both), and the cells cultivated for an ad hoc time.
(§5) The cells are fixed in a paraformaldehyde 4% solution (in PBS) for 10 minutes at room temperature.
After defrosting, the cells are incubated for 5 minutes at room temperature in a humid chamber in 50 μl of a permeabilisation solution:
(§6) The primary antibody is diluted to 1/100th in 50 μl of incubation solution and put in contact with the cells for 1 hour at room temperature in a humid chamber.
Incubation with the secondary antibody takes place for 1 hour in 50 ml of incubation solution at room temperature in a humid chamber. […]
(§7) The cells are immersed in a drop of VectaShield (Vector), covered with an object-covering blade and observed on a fluorescence microscope (Leica DMR, Leica Microsystems), equipped with a coolSNAP (Princeton) camera system.

[2] = tested on: healthy cells; assay: Immunohistochemistry: deformed nuclei / toxicity on healthy reference cells; assay type: cell-based, human; settings: Pravastatin 100 μM for 12 hours, zoledronate 20 μM for 6 hours; in combination or alone (FIG. 3)
Procedure: as §1, §2, §3, §4, §5, §6
Incubation with the secondary antibody takes place for 1 hour in 50 ml of incubation solution at room temperature in a humid chamber. The secondary antibodies are of two types: • Anti-mouse donkey, Jackson Immunoresearch, dilution to 1/100th • Anti-goat donkey, Jackson Immunoresearch, dilution to 1/200th […]
as §7

Molecule | level of prelamin A produced in treated healthy cells [1] | level of deformed nuclei (the sign of toxicity on the healthy cells) [2]
CC[C@H](C)C(=O)O[C@H]1C[C@H](O)C=C2C=C[C@H](C)[C@H](CC[C@@H](O)C[C@@H](O)CC(=O)O)[C@H]21 [pravastatin] | 25% | approximately 12%
(1-hydroxy-2-imidazol-1-yl-phosphono-ethyl)phosphonic acid [zoledronate] | 15% | 
